According to patent US11566007B2, “Ras inhibitors” (Revolution Medicines, Inc., priority 2019, dated 2023):

Columns and labels:
KRAS G12D = KRAS G12D (Homo sapiens (Human), UniProt P01116+P62937, G12D); assay: Ras-Raf (BRAF RBD) disruption / FRET / MOA assay, KRAS G12D; type: biochemical; conditions: Ras-Raf disruption/FRET/MOA assay; class symbols; read-out: KRAS G12D FRET data IC50
Outline: (§1)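 Ras:RAF disruption was scored as a fall in TR-FRET ratio relative to DMSO. Compound ranged in 3-fold steps over 10 points from 30 μM final; incubation ran 3 h at 25° C, detection antibodies a further 1.5 h. Reported as IC50.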

K-Ras G12C = K-Ras G12C (Homo sapiens (Human), UniProt P01116+P62937, G12C); assay: Ras-Raf (BRAF RBD) disruption / FRET / MOA assay, KRAS G12C; type: biochemical; conditions: KRAS G12C; Ras-Raf disruption/FRET/MOA assay; read-out: IC50* KRAS G12C FRET data
Chain of K-Ras G12C (P01116-2 other isoform, or with tags, fused parts or gaps G12C): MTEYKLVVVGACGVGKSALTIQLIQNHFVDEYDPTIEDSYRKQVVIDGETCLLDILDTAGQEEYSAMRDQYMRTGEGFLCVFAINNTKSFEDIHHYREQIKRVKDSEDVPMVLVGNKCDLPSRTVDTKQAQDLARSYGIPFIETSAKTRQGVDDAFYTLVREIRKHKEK
Chain of K-Ras G12C (P62937 whole entry): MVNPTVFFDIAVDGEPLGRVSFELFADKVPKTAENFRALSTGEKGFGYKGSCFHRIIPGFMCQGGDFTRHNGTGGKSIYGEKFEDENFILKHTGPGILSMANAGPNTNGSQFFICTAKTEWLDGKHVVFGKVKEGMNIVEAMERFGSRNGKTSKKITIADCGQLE
Outline: as §1

KRAS G12V = KRAS G12V (Homo sapiens (Human), UniProt P01116+P62937, G12V); assay: Ras-Raf (BRAF RBD) disruption / FRET / MOA assay, KRAS G12V; type: biochemical; conditions: read-out: IC50* KRAS G12V FRET data
Chain of KRAS G12V (P01116-2 other isoform, or with tags, fused parts or gaps G12V): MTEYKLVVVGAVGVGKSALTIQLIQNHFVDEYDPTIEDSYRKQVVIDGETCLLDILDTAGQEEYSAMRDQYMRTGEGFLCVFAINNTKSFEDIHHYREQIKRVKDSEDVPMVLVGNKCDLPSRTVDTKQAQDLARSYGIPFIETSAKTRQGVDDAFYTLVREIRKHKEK
Chain of KRAS G12V (P62937 whole entry): as the sequence (P62937 whole entry) above
Outline: as §1

KRAS G13D = KRAS G13D (Homo sapiens (Human), UniProt P01116+P62937, G13D); assay: Ras-Raf (BRAF RBD) disruption / FRET / MOA assay, KRAS G13D; type: biochemical; conditions: read-out: IC50* KRAS G13D FRET data
Chain of KRAS G13D (P01116-2 other isoform, or with tags, fused parts or gaps G13D): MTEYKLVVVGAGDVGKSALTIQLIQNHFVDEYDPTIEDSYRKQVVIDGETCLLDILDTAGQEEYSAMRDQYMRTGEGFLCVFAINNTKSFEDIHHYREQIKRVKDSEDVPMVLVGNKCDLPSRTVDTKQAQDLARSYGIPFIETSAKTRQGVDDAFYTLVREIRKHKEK
Chain of KRAS G13D (P62937 whole entry): as the sequence (P62937 whole entry) above
Outline: as §1

[1] = test system: NCI-H358 cells (K-Ras G12C); assay: Potency assay: pERK in NCI-H358 cells; type: cell-based, human; conditions: Homo sapiens, NCI-H358; H358 KRAS G12C; read-out: pERK EC50
Outline: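 4 h cpd, 37 °C; 10-pt 3-fold series, 10 mM DMSO top stock, duplicates. Readout pERK: AlphaLISA SureFire Ultra or In-Cell Western (IR-800CW secondary, DRAQ5 DNA stain). IC50, 4-PL fit vs log conc.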

NRAS G12C = NRAS G12C (Homo sapiens (Human), UniProt P01111+P62937, G12C); assay: Ras-Raf (BRAF RBD) disruption / FRET / MOA assay, NRAS G12C; type: biochemical; conditions: read-out: IC50* NRAS G12C FRET data
Chain of NRAS G12C (P01111 whole entry G12C): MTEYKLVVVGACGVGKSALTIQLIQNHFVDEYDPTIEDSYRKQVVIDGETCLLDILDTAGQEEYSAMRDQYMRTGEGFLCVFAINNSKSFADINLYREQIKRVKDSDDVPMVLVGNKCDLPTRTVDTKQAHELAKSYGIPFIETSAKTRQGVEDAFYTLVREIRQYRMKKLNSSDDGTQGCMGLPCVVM
Chain of NRAS G12C (P62937 whole entry): as the sequence (P62937 whole entry) above
Outline: as §1

KRAS G12S = KRAS G12S (Homo sapiens (Human), UniProt P01116+P62937, G12S); assay: Ras-Raf (BRAF RBD) disruption / FRET / MOA assay, KRAS G12S; type: biochemical; conditions: Ras-Raf disruption/FRET/MOA assay; class symbols; read-out: KRAS G12S FRET data IC50
Chain of KRAS G12S (P01116-2 other isoform, or with tags, fused parts or gaps G12S): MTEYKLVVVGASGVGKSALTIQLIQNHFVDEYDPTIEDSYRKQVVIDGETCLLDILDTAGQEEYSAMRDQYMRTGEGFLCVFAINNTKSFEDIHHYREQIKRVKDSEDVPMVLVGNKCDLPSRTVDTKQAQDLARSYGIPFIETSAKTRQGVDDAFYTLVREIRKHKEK
Chain of KRAS G12S (P62937 whole entry): as the sequence (P62937 whole entry) above
Outline: as §1

NCI-H358 (K-Ras G12C) = assay: CellTiter-Glo cell viability assay, NCI-H358; type: cell-based, human; conditions: Homo sapiens, NCI-H358, 120 h, NCI-H358, 5-day treatment; class symbols; read-out: Additional H358 Cell Viability assay data (K-Ras G12C, IC50)
Outline: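 Viability of K-Ras mutant lines is measured by ATP luminescence after five days of compound treatment. Percent of DMSO control is calculated and dose-response data are fitted with a four-parameter logistic equation.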

KRAS WT = KRAS WT (Homo sapiens (Human), UniProt P01116+P62937); assay: Ras-Raf (BRAF RBD) disruption / FRET / MOA assay, KRAS WT; type: biochemical; conditions: read-out: IC50* KRAS WT FRET data
Chain of KRAS WT (P01116-2 other isoform, or with tags, fused parts or gaps): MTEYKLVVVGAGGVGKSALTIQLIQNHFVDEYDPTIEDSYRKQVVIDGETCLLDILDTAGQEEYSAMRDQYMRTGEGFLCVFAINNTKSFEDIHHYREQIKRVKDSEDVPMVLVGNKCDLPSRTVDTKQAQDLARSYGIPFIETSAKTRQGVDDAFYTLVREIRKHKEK
Chain of KRAS WT (P62937 whole entry): as the sequence (P62937 whole entry) above
Outline: as §1

K-Ras G13C = K-Ras G13C (Homo sapiens (Human), UniProt P01116+P62937, G13C); assay: Ras-Raf (BRAF RBD) disruption / FRET / MOA assay, KRAS G13C; type: biochemical; conditions: KRAS G13C; Ras-Raf disruption/FRET/MOA assay; read-out: IC50* KRAS G13C FRET data
Chain of K-Ras G13C (P01116-2 other isoform, or with tags, fused parts or gaps G13C): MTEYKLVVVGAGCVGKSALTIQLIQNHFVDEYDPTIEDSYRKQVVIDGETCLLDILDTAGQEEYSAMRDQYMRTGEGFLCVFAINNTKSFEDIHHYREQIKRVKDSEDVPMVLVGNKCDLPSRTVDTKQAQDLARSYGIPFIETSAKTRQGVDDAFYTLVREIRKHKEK
Chain of K-Ras G13C (P62937 whole entry): as the sequence (P62937 whole entry) above
Outline: as §1

Chain of KRAS G12D (P01116-2 other isoform, or with tags, fused parts or gaps G12D): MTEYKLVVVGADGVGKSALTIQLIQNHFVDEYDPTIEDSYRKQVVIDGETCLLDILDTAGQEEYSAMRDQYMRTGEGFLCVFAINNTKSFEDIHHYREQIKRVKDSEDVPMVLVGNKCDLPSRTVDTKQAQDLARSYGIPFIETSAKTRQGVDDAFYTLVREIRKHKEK
Chain of KRAS G12D (P62937 whole entry): as the sequence (P62937 whole entry) above

SMILES	IC50 (KRAS G12D)	IC50 (K-Ras G12C)	IC50 (KRAS G12V)	IC50 (KRAS G13D)	EC50 [1]	IC50 (NRAS G12C)	IC50 (KRAS G12S)	IC50 (NCI-H358 (K-Ras G12C))	IC50 (KRAS WT)	IC50 (K-Ras G13C)
C=CC(=O)N1CC(C(=O)N(C)[C@H](C(=O)N[C@H]2Cc3cccc(c3)-c3ccc4c(c3)c(c(-c3cccnc3[C@H](C)OC)n4CC)CC(C)(C)COC(=O)[C@@H]3CCCN(N3)C2=O)C(C)C)C1 (atropisomer, axis not shown) [Example A467]	> 10000 nM	1000 to 10000 nM	> 10000 nM	> 10000 nM	< 5000 nM	100 to 1000 nM	> 10000 nM	10 to 100 nM	> 10000 nM	1000 to 10000 nM
C=CC(=O)N1CC[C@H](C(=O)N(C)[C@H](C(=O)N[C@H]2Cc3cccc(c3)-c3ccc4c(c3)c(c(-c3cccnc3[C@H](C)OC)n4CC)CC(C)(C)COC(=O)[C@@H]3CCCN(N3)C2=O)C2COC2)C1 (atropisomer, axis not shown) [Example A469]	> 10000 nM	100 to 1000 nM	1000 to 10000 nM	1000 to 10000 nM	< 5000 nM	100 to 1000 nM	1000 to 10000 nM	100 to 1000 nM	1000 to 10000 nM	1000 to 10000 nM
C=CC(=O)N1CC[C@]2(CCN([C@H](C(=O)N[C@H]3Cc4cccc(c4)-c4ccc5c(c4)c(c(-c4cccnc4[C@H](C)OC)n5CC)CC(C)(C)COC(=O)[C@@H]4CCCN(N4)C3=O)C(C)C)C2=O)C1 (atropisomer, axis not shown) [Example A470]	1000 to 10000 nM	100 to 1000 nM	1000 to 10000 nM	1000 to 10000 nM	< 5000 nM	100 to 1000 nM	100 to 1000 nM	10 to 100 nM	1000 to 10000 nM	100 to 1000 nM
C=CC(=O)N1CC[C@@]2(CCN([C@H](C(=O)N[C@H]3Cc4cccc(c4)-c4ccc5c(c4)c(c(-c4cccnc4[C@H](C)OC)n5CC)CC(C)(C)COC(=O)[C@@H]4CCCN(N4)C3=O)C(C)C)C2=O)C1 (atropisomer, axis not shown) [Example A471]	> 10000 nM	100 to 1000 nM	> 10000 nM	> 10000 nM	< 5000 nM	100 to 1000 nM	1000 to 10000 nM	10 to 100 nM	1000 to 10000 nM	100 to 1000 nM
CCn1c(-c2cccnc2[C@H](C)OC)c2c3cc(ccc31)-c1csc(n1)C[C@H](NC(=O)CCOC1CN(C(=O)C#CC(C)(C)N3CCC3)C1)C(=O)N1CCC[C@H](N1)C(=O)OCC(C)(C)C2 (atropisomer, axis not shown) [Example A477]	> 10000 nM	< 10 nM	1000 to 10000 nM	> 10000 nM	< 5000 nM	10 to 100 nM	> 10000 nM	10 to 100 nM	1000 to 10000 nM	1000 to 10000 nM
CCn1c(-c2cccnc2[C@H](C)OC)c2c3cc(ccc31)-c1cccc(c1)C[C@H](NC(=O)CCOC1CN(C(=O)C#CC(C)(C)N3CCC3)C1)C(=O)N1CCC[C@H](N1)C(=O)OCC(C)(C)C2 (atropisomer, axis not shown) [Example A478]	> 10000 nM	10 to 100 nM	> 10000 nM	> 10000 nM	< 5000 nM	10 to 100 nM	> 10000 nM	10 to 100 nM	> 10000 nM	> 10000 nM
CCn1c(-c2cccnc2[C@H](C)OC)c2c3cc(ccc31)-c1csc(n1)C[C@H](NC(=O)[C@H](C(C)C)N(C)C(=O)N1CCN(C(=O)C#CC(C)(C)N(C)C)CC1)C(=O)N1CCC[C@H](N1)C(=O)OCC(C)(C)C2 (atropisomer, axis not shown) [Example A479]	100 to 1000 nM	< 10 nM	10 to 100 nM	100 to 1000 nM	< 5000 nM	< 10 nM	10 to 100 nM	< 10 nM	10 to 100 nM	10 to 100 nM
CCn1c(-c2cccnc2[C@H](C)OC)c2c3cc(ccc31)-c1cccc(c1)C[C@H](NC(=O)[C@H](C(C)C)N(C)C(=O)[C@H]1CCN(C(=O)/C=C/C(F)F)C1)C(=O)N1CCC[C@H](N1)C(=O)OCC(C)(C)C2 (atropisomer, axis not shown) [Example A485]	> 10000 nM	10 to 100 nM	1000 to 10000 nM	1000 to 10000 nM	< 5000 nM	10 to 100 nM	1000 to 10000 nM	< 10 nM	1000 to 10000 nM	100 to 1000 nM
CC#CC(=O)N1CC[C@@H](C(=O)N(C)[C@H](C(=O)N[C@H]2Cc3cccc(c3)-c3ccc4c(c3)c(c(-c3cccnc3[C@H](C)OC)n4CC)CC(C)(C)COC(=O)[C@@H]3CCCN(N3)C2=O)C(C)C)C1 (atropisomer, axis not shown) [Example A487]	1000 to 10000 nM	100 to 1000 nM	1000 to 10000 nM	1000 to 10000 nM	< 5000 nM	100 to 1000 nM	1000 to 10000 nM	10 to 100 nM	1000 to 10000 nM	100 to 1000 nM
CCn1c(-c2cccnc2[C@H](C)OC)c2c3cc(ccc31)-c1csc(n1)C[C@H](NC(=O)[C@H](C)N(C)C(=O)[C@H]1CCN(C(=O)C#CC(C)(C)N3CCC3)C1)C(=O)N1CCC[C@H](N1)C(=O)OCC(C)(C)C2 (atropisomer, axis not shown) [Example A489]	> 10000 nM	10 to 100 nM	1000 to 10000 nM	1000 to 10000 nM	< 5000 nM	10 to 100 nM	1000 to 10000 nM	10 to 100 nM	1000 to 10000 nM	1000 to 10000 nM
C=CC(=O)NC1CN(C(=O)N(C)[C@H](C(=O)N[C@H]2Cc3nc(cs3)-c3ccc4c(c3)c(c(-c3cccnc3[C@H](C)OC)n4CC)CC(C)(C)COC(=O)[C@@H]3CCCN(N3)C2=O)C(C)C)C1 (atropisomer, axis not shown) [Example A490]	1000 to 10000 nM	10 to 100 nM	100 to 1000 nM	100 to 1000 nM	< 5000 nM	10 to 100 nM	100 to 1000 nM	10 to 100 nM	100 to 1000 nM	100 to 1000 nM
